Data taken from patent US6133467A, “2,6-di-t-butyl-4-[(dimethyl-4-methoxyphenylsilyl)-methyl-oxy]phenol and 2,6-di-t-butyl-4-[(dimethyl-2-methoxy-phenylsilyl)methyloxy]phenol” (Hoechst Marion Roussel, Inc., priority 1998, dated 2000).
Read-outs that look alike come from different tables or passages of the source.

Tests used:
[1] = test system: cholesterol-fed female New Zealand White rabbits (aortic lesions); experiment: Antiatherosclerotic effect: aorta staining (Sudan IV) and lesion quantitation in cholesterol-fed female New Zealand White rabbits; assay type: in vivo, rabbit (New Zealand White; settings: for Aortic Lesion % of Area, Abdom. (abdominal), as a percent of control: abdominal aorta; for Aortic Lesion % of Area, Abdom. (abdominal), as a percent of control / Aortic Lesion % of Area, Arch, as a percent of control / Aortic Lesion % of Area, Thor. (thoracic), as a percent of control / Aortic Lesion % of Area, Total, as a percent of control: 70 days, diet I 0.15%*, II and III 0.40%; for Aortic Lesion % of Area, Thor. (thoracic), as a percent of control: thoracic aorta; for Aortic Lesion % of Area, Total, as a percent of control: total surface area of aorta; for reduction of total aortic lesions: average, vs control rabbits, 0.15% for Compound I compared to 0.4% for Compound III
Description: (§1) Female New Zealand White rabbits (Hazelton, ~2.0-2.3 kg) were fed 0.5% cholesterol/10% corn oil enriched rabbit chow (Purina # 5322) with or without test compound. The experiment was conducted for 70 days. The test compounds were solubilized in 100% ethanol and sprayed on the chow; control chows were sprayed with ethanol. The chows were dried overnight in a chemical fume hood. Rabbits were fed 100 grams food per day; water was available ad libitum. On the last day of the study rabbits (fasted overnight) were bled (~2 mL) from a marginal ear vein periodically to monitor serum cholesterol levels. The rabbits were euthanized on day 70 by carbon dioxide overdose. The total body and liver weights were recorded in grams. Food consumption was recorded as grams.cndot.day^-1. Aliquots of fresh serum were used for clinical chemistries and copper induced thiobarbituric acid reactive substances (TBARS). Aliquots of serum and livers (~5 gram) were frozen at -20° C. for compound and metabolite concentration determination at a later time.
The aortas were dissected from rabbits immediately after they were killed. The aorta from the ascending arch to the iliac bifurcation was excised after debridement of extraneous adipose tissue. Aortas were stored overnight in phosphate buffered saline (PBS)/0.02% sodium azide, pH 7.4, at 4° C. until final debridement. Before staining, aortas were cut open longitudinally and stained with Sudan IV as follows. Sudan IV stain (5.0 g) was added to 500 mL of 70% ethanol, 500 mL of acetone were added, and the solution was stirred overnight at room temperature. The solution was filtered through Whatman #1 filter paper. Aortas were rinsed with 70% ethanol for 10 minutes. They were stained with Sudan IV for 60 min at room temperature, rinsed with 70% ethanol for 5-10 min, and stored in deionized water overnight at 4° C. They were stored in PBS/0.02% sodium azide at 4° C. until imaging could be completed.
The areas containing sudanophilic lesions were quantitated as follows. Aortas were pinned flat onto black plastic sheets, illuminated with several fiber optic light sources, and photographed with a KODAK DCS-420 digital camera mounted on a copy stand. Images were captured and converted to 24 bit color TIFFs with Image Pals image editor software. The resulting images were rescaled to 1024×683 pixels to permit input into the Simple image analysis system and transferred to optical disk storage media. The Simple software was programmed to allow a region of interest to be drawn around the section of the aorta (arch, thoracic, abdominal) which separated the image of the aorta from the pins and the background. the program determined the tissue area in pixels based on pre-selected thresholds of hue, saturation, and intensity. These thresholds were adjusted to recognize the lesion area, and the percent fraction (# lesion pixels/# tissue pixels) was determined. This process was repeated on each portion of the aorta for each rabbit.
(§2) % Control = (Mean, treated group / Mean, control group) × (100)
Total = % area of total surface area of aorta covered with lesions
Arch, Thoracic, Abdominal = % area of each segments of the aorta

[2] = test system: serum cholesterol and triglycerides; experiment: Clinical chemistries: serum total cholesterol and triglycerides in cholesterol-fed rabbits; assay type: in vivo, rabbit (New Zealand White, female); settings: for TRIG (triglycerides) as a percent of control / chol tot. (total cholesterol) as a percent of control: serum, 70 days, diet I 0.15%*, II and III 0.40%; for increase of triglycerides: vs control rabbits
Description: as §1
Blood was allowed to clot at room temperature for 30 minutes. Serum was obtained after centrifugation for 10 min at 5° C. at 3000 rpm in a Beckman GPKR centrifuge with a GH 3.7 rotor. Fresh serum was analyzed by a COBA MIRA S autoanalyzer (Roche Diagnostics) using Roche diagnostic reagents for total cholesterol (CHOL, kit # 44334) and triglyceride (TG, kit # 44120). Cholesterol and triglycerides were calculated as mg/dL.
as §2
CHOL = total cholesterol mg/dL
TRIG = triglycerides, mg/dL

[3] = test system: serum lipid oxidation (TBARS); experiment: TBARS assay: copper-induced oxidation of serum lipids from treated rabbits; assay type: in vivo, rabbit (New Zealand White, female); settings: CuSO4 37° C. 5 hr, diet I 0.15%*, II and III 0.40%
Description: as §1
TBARS are a […] indication of the oxidation of lipids in a sample. Mao, S J T et al. Meth. of Enzymol. 234, 517-525 (1994). In this assay copper sulfate was used to initiate the oxidation serum lipids, resulting in the formation of aldehydes, such as malondialdehyde (MDA). Upon incubation with thiobarbituric acid, the absorbance of the aldehydes was detected at 530-540 nm. TBARS values which are lower than control serum values indicate the relative ability of a test compound to inhibit the oxidation. TBARS were measured as follows: 50 μL of serum were mixed with 50 μL of 0.9% saline and 400 μL of a 5 mmol CuSO4 solution and incubated at 37° C. for 5 hr. The reactions were stopped by addition of 1.0 mL of 20% trichloroacetic acid. […] Absorbances were measured at 540 nm using a Biotek model EL311 microplate reader. The nmoles of MDA produced were calculated from a standard curve of 0 to 10 nmoles of MDA prepared from malonaldehyde bis(dimethyacetal). […]
TBARS = thiobarbituric acid reactive substances, expressed as nmole MDA

[4] = Body weight and liver weight/body weight in cholesterol-fed rabbits; assay type: in vivo, rabbit (New Zealand White, female); settings: II and III 0.40%; for body wt. as a percent of control: 70 days in 0.5% cholesterol/10% corn oil chow, diet I 0.15% (0.4% × 7 days, 0% × 7 days, then 0.15% × 56 days); for lw/bw (liver weight / body weight) as a percent of control: 70 days, diet I 0.15%*
Description: as §1, §2
Body wt. = weight in kilograms
liver wt. = weight in kilograms
LW/BW = (liver weight / body weight)

[5] = HPLC quantitation of serum and liver compound and metabolite concentration; assay type: in vivo, rabbit (New Zealand White, female); settings: for concentration at 1680 h: rabbit, po; for Serum Parent: parent compound concentration: 100800 min
Description: as §1
Serum and liver concentrations of parent compounds and the metabolites, bisphenol and diphenoquinone, were determined by reverse phase HPLC using a Waters 990 Powerline system. Mao, S. J. T. et al., Meth. of Enzymol. 234, 517-525 (1994); Satoni, D. K. and Coutant, J. E., J. Chrom. 380, 401-406 (1986). Livers (1 gram) were homogenized with 5.0 mL PBS, pH 7.4, using a Polytron tissue homogenizer at setting 5 for 20-30 seconds. Serum or liver homogenates were extracted as follows: 100 μL of serum or homogenate were added to 2.0 mL diethyl ether: ethanol (3:1) while vortexing the tube. The sample tubes were capped and centrifuged for 10 min at 5° C. at 3500 rpm in a Beckman GPKR centrifuge with a GH 3.7 rotor. The supernatants were transferred to clean tubes and dried under N2. Samples were reconstituted with 200 μL of acetonitrile:hexane:0.1 M ammonium acetate (90:6.5:3.5, by vol.). Then, 100 μL were injected onto a Waters Deltapak C18-300 Å column, and eluted with an 83% acetonitrile: 17% water mobile phase at a flow rate of 1.5 mL/min. Absorbances at the wavelengths of 240, 254, and 420 nm were recorded. Compound concentrations were calculated from known quantities of authentic parent compounds after correction for recovery; the range of recovery from spiked samples was 40 to 100%. The lowest detectable limit for this class of compounds was ~0.5 μg/mL. Concentrations were calculated as of μg/mL serum and of […].
Sample compound concentrations in serum and liver are presented as
μg/mL or μg/g, respectively.
Serum Parent = parent compound concentration as μg/mL of serum
Serum Bis = bisphenol concentration as μg/mL of serum
Serum Quin = diphenoquinone concentration as […]
Liver Parent = parent compound concentration as μg/g liver
Liver Bis = bisphenol concentration as μg/g liver
Liver Quin = diphenoquinone concentration as μg/g liver
0 = value less than detectable limit of HPLC system

[6] = liver, diet I 0.15%*, II and III 0.40%, read-out: Liver Parent: parent compound concentration
[7] = liver, read-out: concentration of parent compound in livers
[8] = serum, diet I 0.15% (0.4% × 7 days, 0% × 7 days, then 0.15% × 56 days), II and III 0.40%, read-out: Serum Parent: parent compound concentration
[9] = serum, diet I 0.15% (0.4% × 7 days, 0% × 7 days, then 0.15% × 56 days), II and III 0.40%

With COc1ccccc1[Si](C)(C)COc1cc(C(C)(C)C)c(O)c(C(C)(C)C)c1 [Compound II, 2,6-di-t-butyl-4-[(dimethyl-2-methoxyphenylsilyl)methyloxy]phenol] the “Aortic Lesion % of Area, Abdom. (abdominal), as a percent of control” value [1] was 50%, the “Aortic Lesion % of Area, Arch, as a percent of control” value [1] was 56% and the “Aortic Lesion % of Area, Thor. (thoracic), as a percent of control” value [1] was 44%. The “Aortic Lesion % of Area, Total, as a percent of control” value [1] was 55%, the “TRIG (triglycerides) as a percent of control” value (from here on “TRIG … as a percent of control”) [2] was 100% and the “chol tot. (total cholesterol) as a percent of control” value [2] was 79%. The “increase of triglycerides” value [2] was “did not show an undesirable increase of triglycerides”, the “TBARS (nmole MDA) as a percent of control” value [3] was 90% and the “body wt. as a percent of control” value [4] was 98%. For the same compound, the “lw/bw (liver weight / body weight) as a percent of control” value [4] was 86%, the concentration at 1680 h [5, 6] was 80900 ng/g and the concentration at 1680 h [5, 7] was 80.9 µg/mL. The concentration at 1680 h [5, 8] was 93.3 µg/mL, the “bisphenol and diphenoquinone metabolites in serum and livers” value (shortened to “bisphenol and diphenoquinone metabolites”) [5] was “none of the bisphenol and diphenoquinone metabolites of Compounds I or II were detected in either serum or livers” and the “Serum Parent: parent compound concentration” value (from here on “Serum Parent”) [5, 9] was 93.3 µg/mL.
With CC(C)(C)c1cc(SC[Si](C)(C)c2ccccc2)cc(C(C)(C)C)c1O [Compound III, 2,6-di-t-butyl-4-[(dimethylphenylsilyl)methylthio]phenol, reference compound] the “Aortic Lesion % of Area, Abdom. (abdominal), as a percent of control” value [1] was 30%, the “Aortic Lesion % of Area, Arch, as a percent of control” value [1] was 50% and the “reduction of total aortic lesions” value [1] was 57%. For the same compound, the “Aortic Lesion % of Area, Thor. (thoracic), as a percent of control” value [1] was 30%, the “Aortic Lesion % of Area, Total, as a percent of control” value [1] was 43% and the “TRIG … as a percent of control” value [2] was 783%. For the same compound, the “chol tot. (total cholesterol) as a percent of control” value [2] was 64%, the “TBARS (nmole MDA) as a percent of control” value [3] was 18% and the “body wt. as a percent of control” value [4] was 89%. The “lw/bw (liver weight / body weight) as a percent of control” value [4] was 98%, the concentration at 1680 h [5, 6] was 323000 ng/g and the concentration at 1680 h [5, 7] was 323 µg/mL. For the same compound, the concentration at 1680 h [5, 8] was 182 µg/mL, the “bisphenol and diphenoquinone metabolites” value [5] was “undesirably high concentrations in both serum and livers” and the “Serum Parent” value [5, 9] was 182.4 µg/mL.
For COc1ccc([Si](C)(C)COc2cc(C(C)(C)C)c(O)c(C(C)(C)C)c2)cc1 [Compound I, 2,6-Di-t-butyl-4-[(dimethyl-4-methoxyphenylsilyl)methyloxy]phenol], the “Aortic Lesion % of Area, Abdom. (abdominal), as a percent of control” value [1] was 10%, the “Aortic Lesion % of Area, Arch, as a percent of control” value [1] was 5% and the “reduction of total aortic lesions” value [1] was 96%. The “Aortic Lesion % of Area, Thor. (thoracic), as a percent of control” value [1] was 3%, the “Aortic Lesion % of Area, Total, as a percent of control” value [1] was 4% and the “TRIG … as a percent of control” value [2] was 22%. The “chol tot. (total cholesterol) as a percent of control” value [2] was 28%, the “increase of triglycerides” value [2] was “did not show an undesirable increase of triglycerides” and the “TBARS (nmole MDA) as a percent of control” value [3] was 56%. The “body wt. as a percent of control” value [4] was 95%, the “lw/bw (liver weight / body weight) as a percent of control” value [4] was 89% and the concentration at 1680 h [5, 6] was 44900 ng/g. The concentration at 1680 h [5, 7] was 44.9 µg/mL, the concentration at 1680 h [5, 8] was 7.3 µg/mL and the “bisphenol and diphenoquinone metabolites” value [5] was “none of the bisphenol and diphenoquinone metabolites of Compounds I or II were detected in either serum or livers”. The “Serum Parent” value [5, 9] was 7.3 µg/mL.
